“And” between values parts separate entries of the source, which are not always exact repeats. Equal values may be shown once. Where a name gives a salt, the structure may show the parent alone. Read-outs that look alike come from different tables or passages of the source. Marks after values point to notes of the source that are not given here.

The values that follow come from patent publication US9580428B2, “Compositions and methods for inhibiting viral polymerase” (priority 2012, dated 2017).

Data set [1] has as its system A/Vic/3/75 (H3N2). In words: microbe, parasite or virus in culture. Format: cell-based. The note with it: Influenza A virus.
In data set [2] the test system is H3N2 virus (A/Victoria/3/75). The arrangement: species or system BALB/c mice. The following applies: mouse, in vivo.
Data set [3] has as its system H3N2 virus (A/Victoria/3/75). Set-up: species or system BALB/c mice. The note with it: mouse, in vivo. This is another data set of the same source.
Data set [4] has as its system Yellow fever virus (Jimenez strain). Format: in vivo, Syrian golden hamsters. The note with it: 100 mg/kg.
Data set [5] concerns Adenovirus type 165089/Chicago (A-549 cells). The note with it: human.
Data set [6] has the same test system. The note with it: human. This is another data set of the same source.
In data set [7] the test system is Influenza A H1N1 CA/04/2009 (Pandemic HIN1).
The test system is the same in data set [8]. The source holds these as a separate data set.
Data set [9] relates to Influenza B Florida.
Data set [10] deals with Rhinovirus 2 HGP (HeLa Ohio-1 cells). The following applies: human.
In data set [11] the test system is SARS-CoV Urbani (Vero 76 cells). The note with it: African green monkey.
Data set [12] relates to West Nile (Vero Cells). The note with it: African green monkey.
For data set [13] the following is noted: rat, in vivo, po; for AUC(0-inf) / Cmax / Tmax: male, Sprague-Dawley.
The nature of data set [14]: in vitro. The note with it: African green monkey.
A short description of data set [15]: in vitro. The following applies: African green monkey. This is another data set of the same source.
The subject of data set [16] is Punta Toro A2 (Vero 76 cells). In words: microbe, parasite or virus in culture.
Data set [17] deals with Punta Toro A2 (Vero 76 cells). Description: microbe, parasite or virus in culture. This is another data set of the same source.
The subject of data set [18] is Respiratory Syncytial A2 (MA-104 cells). Description: microbe, parasite or virus in culture. The following applies: human respiratory syncytial virus, MA104.
The test system is the same in data set [19]. In words: microbe, parasite or virus in culture. The note with it: human respiratory syncytial virus, MA104. This is another data set of the same source.
The test system of data set [20] is Rhinovirus 2 HGP (HeLa Ohio-1 cells). Description: microbe, parasite or virus in culture. The following applies: Enterovirus, HeLa Ohio1.
For data set [21] the test system is unchanged. Description: microbe, parasite or virus in culture. The note with it: Enterovirus, HeLa Ohio1. This is another data set of the same source.
The subject of data set [22] is Yellow Fever 17D (Vero 76 cells). Description: microbe, parasite or virus in culture.
Data set [23] shares this test system. Description: microbe, parasite or virus in culture. The source holds these as a separate data set.

The EC50 is the midpoint of the concentration-response curve. Usually Cmax stands for the peak of the concentration-time curve. As a reminder, the Tmax is the time from dosing to the highest level. The IC50 is the point on the concentration scale where inhibition reaches its midpoint. In the case of `Cl.Cl.Nc1ncnc2c([C@@H]3N[C@H](CO)[C@@H](O)[C@H]3O)c[nH]c12` [compound 12i, (2S,3S,4R,5R)-2-(4-amino-5H-pyrrolo[3,2-d]pyrimidin-7-yl)-5-(hydroxymethyl)pyrrolidine-3,4-diol dihydrochloride], the EC50 in [1] was 4 µg/mL; in data set [9], 1.8 µg/mL; in data set [16] it was 310 µg/mL; in data set [17] it was greater than 250 µg/mL; in [18], greater than 100 µg/mL; in data set [19] it was greater than 100 µg/mL. Moreover, the EC50 in [20] is 57 µg/mL; in data set [21], 56 µg/mL; in data set [22], 8.3 µg/mL; in data set [23], 8.3 µg/mL. Also, the “Mean day to death (Mean ± SEM)” value in data set [2] and in data set [3] (po) was greater than 16 days throughout. Besides, the Survival/Total in data set [3] and in data set [3] (po) was 10/10* throughout. In addition, in data set [3] (po), the “Mean weight change (grams ± SEM) Day 9” value is 0.01 + 0.27** grams. The Survival rate in data set [4] (21 days) is 100%; in data set [4] (hamster, in vivo, ip, dihydrochloride), 100% and 80%. The weight result in data set [4] (hamster, in vivo, ip) was “weight gain over placebo and ribavirin”. Moreover, the “IC50 (50% cytotoxic dose)” value was greater than 0.1 µg/mL in data set [5]; greater than 0.1 µg/mL in data set [6]; 0.21 µg/mL in [7]; 0.21 µg/mL in data set [8]; greater than 0.1 µg/mL in [10]; greater than 0.1 µg/mL in [11]. Further, the “IC50 (50% cytotoxic dose)” value in data set [12] is greater than 0.1 µg/mL. Also, the “AUC(0-inf)” value in data set [13] (10 mg/kg) is given as 219 ng·h. The Cmax in data set [13] (10 mg/kg) is 123 ng/mL. Moreover, the Tmax in data set [13] (10 mg/kg) amounted to 30 min. The IC50 in data set [14] and in [15] was greater than 100 µg/mL each time.

With `CC(C)[C@H](N)C(=O)OC[C@H]1N[C@@H](c2c[nH]c3c(N)ncnc23)[C@H](O)[C@@H]1O` [compound 30f, (S)-((2R,3R,4S,5S)-5-(4-amino-5H-pyrrolo[3,2-d]pyrimidin-7-yl)-3,4-dihydroxypyrrolidin-2-yl)methyl 2-amino-3-methylbutanoate Hydrochloride], in data set [13] (10 mg/kg), the “AUC(0-inf)” value was determined as 1076 ng·h, the Cmax came out at 527 ng/mL, the Tmax is 30 min and the “bioavailability relative to compound 12i” value is “approximately four-fold”. Further, the “hydrolysis by plasma esterases to compound 12i” value in [13] is reported as “rapidly hydrolyze”.
